Source: US11091490B2, “3-amino-1,5-dihydro-pyrazolo[3,4-d]pyrimidin-4-ones as cyclin dependent kinase inhibitors” (Oncotyrol Center for Personalized Cancer Medicine GMBH, priority 2016, dated 2021)
Several values for one entry are separate records, joined by “and”; a condition that tells them apart may be missing. Identical values can stand only once. Like-named read-outs stand apart in the source and are kept apart here.

Key:
NCI-H929/GN2 = experiment: Multiple myeloma cells in mono- and co-culture with osteoblasts, imaging based detection (NCI-H929); format: cell-based
Description: (§1) Compound 86 has been compared with the key compound of WO 2000/21926 A2 (Example 121) in an imaging based detection system.
(§2) Two different multiple myeloma (MM) cell lines (RPMI-8226 (DSMZ, ACC 402), NCI-H929 DSMZ, ACC 163) have been used and were cultured in mono- and co-culture with osteoblasts (OB) (Osteoblasts were obtained by culturing hMSCs with a differentiation inducing medium for two weeks) in accordance with the method of Karadag A. et al. Journal of Bone and Mineral Research Vol. 15, No. 10, 2000 page 1935-43.

RPMI-8226/GN1 = experiment: Multiple myeloma cells in mono- and co-culture with osteoblasts, imaging based detection (RPMI-8226); format: cell-based
Description: as §1, §2

An EC50 (NCI-H929/GN2; Homo sapiens, NCI-H929, NCI-H929/GN2, co-culture with osteoblasts, read-out: co-culture (+ OB) EC50) of 160 nM, an EC50 (NCI-H929/GN2; Homo sapiens, NCI-H929, NCI-H929/GN2, mono-culture, read-out: mono-culture EC50) of 50 nM and an EC50 (NCI-H929/GN2; NCI-H929/GN2, co-culture with osteoblasts, read-out: co-culture (+ OB) EC50) of 150 nM were found for `CC(C)c1nn(-c2c(Cl)cc(Cl)cc2Cl)c2nc(Cc3ccc(NC(=O)C4CN(C)CCN4C)cc3)[nH]c(=O)c12` (centres unmarked) [Reference compound, reference compound] in this work. The EC50 (NCI-H929/GN2; NCI-H929/GN2, mono-culture, read-out: mono-culture EC50) was 65 nM, the EC50 (RPMI-8226/GN1; Homo sapiens, RPMI-8226, RPMI-8226/GN1, co-culture with osteoblasts, read-out: co-culture (+ OB) EC50) was 420 nM and the EC50 (RPMI-8226/GN1; Homo sapiens, RPMI-8226, RPMI-8226/GN1, mono-culture, read-out: mono-culture EC50) was 120 nM. The EC50 (RPMI-8226/GN1; RPMI-8226/GN1, co-culture with osteoblasts, read-out: co-culture (+ OB) EC50) was 520 nM and 650 nM and the EC50 (RPMI-8226/GN1; RPMI-8226/GN1, mono-culture, read-out: mono-culture EC50) was 200 nM and 210 nM.
